Reference: US6337326B1, “N-aryl-(homopiperazinyl)-cyclohexyl amines” (American Home Products Corporation, priority 1999, dated 2002)
Where a name gives a salt, the structure may show the parent alone.

How the values were obtained:
Human 5-HT Transporter = target: T1, Human 5-HT Transporter (Homo sapiens, UniProt P31645); test: Inhibition of 3H-5-HT Uptake by cells Possessing the Human 5-HT Transporter (HC 5-HT Transporter); format: cell-based; details: Jar cells (human carcinoma) treated with staurosporine, 37° C., 5 min
T1 construct: endogenous in cells; host or cells: Jar cells (human carcinoma cell line), treated with staurosporine
T1 sequence (P31645 whole entry): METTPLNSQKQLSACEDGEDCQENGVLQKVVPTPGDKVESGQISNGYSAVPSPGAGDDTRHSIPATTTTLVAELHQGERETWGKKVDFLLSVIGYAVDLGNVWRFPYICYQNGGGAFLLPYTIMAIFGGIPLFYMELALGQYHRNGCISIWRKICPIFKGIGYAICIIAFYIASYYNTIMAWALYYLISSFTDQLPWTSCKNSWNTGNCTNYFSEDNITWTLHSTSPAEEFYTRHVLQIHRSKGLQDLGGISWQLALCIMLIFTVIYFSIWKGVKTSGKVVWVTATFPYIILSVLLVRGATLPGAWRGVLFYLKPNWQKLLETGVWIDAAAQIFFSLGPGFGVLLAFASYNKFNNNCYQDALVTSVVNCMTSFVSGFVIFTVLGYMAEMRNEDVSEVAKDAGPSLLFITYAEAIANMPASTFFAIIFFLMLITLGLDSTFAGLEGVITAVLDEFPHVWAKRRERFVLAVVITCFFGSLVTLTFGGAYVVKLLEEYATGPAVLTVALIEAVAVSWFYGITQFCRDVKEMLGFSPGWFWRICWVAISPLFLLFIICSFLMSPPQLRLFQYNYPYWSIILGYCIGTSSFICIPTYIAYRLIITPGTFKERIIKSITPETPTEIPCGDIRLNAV
Procedure: [Staurosporine greatly increases the expression of the 5-HT-transporter.] On the day of assay, vehicle, excess of fluoxetine, or test compound is added to various wells on the plate. All wells then receive ^3H-5-HT and are incubated at 37° C. for 5 min. The wells are then washed with ice cold 50 mM Tris HCl (pH 7.4) buffer and aspirated to remove free ^3H-5-HT. 25 μl of 0.25 M NaOH is then added to each well to lyse the cells and 75 μl scintillation cocktail (Microscint™ 20) added prior to quantitation on a Packard TopCount machine. Tubes with vehicle represent total possible uptake, radioactivity counted in tubes with fluoxetine represent nonspecific binding/uptake and is subtracted from the total possible uptake to give total possible specific uptake. This nonspecific binding (usual low in number) is then subtracted from the counts obtained in wells with various test compounds (or different concentrations of test drug) to give specific uptake in the presence of drug. Specific uptake is then expressed as a % of control values and is analyzed using nonlinear regression analysis (Prizm) to determine IC50 values. If the compound is active at inhibiting 5-HT uptake, its counts will be close to that obtained with fluoxetine.

5-HT transporter = target: T2, 5-HT transporter (Rattus norvegicus, UniProt P31652); test: Rat Brain 3H-Paroxetine Binding Assay (RB 5HT Transporter); details: frontal cortical membranes from male S.D. rats, 3H-paroxetine 0.1 nM, 60 min, 25° C.
T2 construct: from tissue; host or cells: frontal cortical membranes of male Sprague-Dawley rats
T2 sequence (P31652 whole entry): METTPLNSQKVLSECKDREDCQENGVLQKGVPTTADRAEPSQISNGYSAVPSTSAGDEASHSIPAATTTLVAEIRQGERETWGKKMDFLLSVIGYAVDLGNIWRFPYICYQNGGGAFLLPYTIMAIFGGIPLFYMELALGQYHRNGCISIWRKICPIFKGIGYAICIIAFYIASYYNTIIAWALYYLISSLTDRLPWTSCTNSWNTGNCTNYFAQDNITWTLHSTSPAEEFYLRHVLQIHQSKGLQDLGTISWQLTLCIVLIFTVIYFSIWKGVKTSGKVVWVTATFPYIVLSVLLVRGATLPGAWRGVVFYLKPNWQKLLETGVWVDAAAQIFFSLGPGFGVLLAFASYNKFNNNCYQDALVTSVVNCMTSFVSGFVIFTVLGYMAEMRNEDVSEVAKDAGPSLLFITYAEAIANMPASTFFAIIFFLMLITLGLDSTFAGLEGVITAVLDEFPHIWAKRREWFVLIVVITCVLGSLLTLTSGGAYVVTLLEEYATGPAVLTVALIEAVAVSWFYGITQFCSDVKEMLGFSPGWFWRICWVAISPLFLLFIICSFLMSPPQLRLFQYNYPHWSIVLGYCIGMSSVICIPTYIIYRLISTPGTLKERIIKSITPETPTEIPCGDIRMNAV
Procedure: Rat Brain ^3H-Paroxetine Binding Assay (RB 5HT Transporter)
The following assay was used to determine a compound's affinity of the 5-HT transporter.
A protocol similar to that used by Cheetham et. al. (Neuropharmacol. 1993, 32, 737) was used. Briefly, frontal cortical membranes prepared from male S.D. rats were incubated with ^3H-parxetine (0.1 nM) for 60 min. at 25° C. All tubes also contained either vehicle, test compound (one to eight concentrations), or a saturating concentration of fluoxetine (10 μM) to define […]. All reactions are terminated by the addition of ice cold Tris buffer followed by rapid filtration using a Tom Tech filtration device to separate bound from free ^3H-paroxetine. Bound radioactivity was quantitated using a Wallac 1205 Beta Plate® counter. Nonlinear regression analysis was used to determine IC50 values which were converted to Ki values using the method of Cheng and Prusoff (Biochem. Pharmacol. 1973, 22, 3099); [formula]

melting point [°C]	IC50 (Human 5-HT Transporter) [µM]	Ki (5-HT transporter) [µM]	SMILES
148 to 160			COc1ccccc1N1CCCN(C2CCC(c3c[nH]c4ccccc34)CC2)CC1 (stereo not shown) (as salt: hydrochloride) [Example 1, 3-{4-[4-(2-Methoxy-phenyl)-[1,4]diazepan-1-yl]-cyclohexyl}-1H-indole]
	0.578	0.042	COc1ccccc1N1CCCN(C2CCC(c3c[nH]c4ccccc34)CC2)CC1 (stereo not shown) [Example 1, 3-{4-[4-(2-Methoxy-phenyl)-[1,4]diazepan-1-yl]-cyclohexyl}-1H-indole]
	1.14	0.012	COc1ccccc1N1CCCN(C2CCC(c3c[nH]c4ccc(F)cc34)CC2)CC1 (stereo not shown) [Example 3, 3-{4-[4-(2-Methoxy-phenyl)-[1,4]diazepan-1-yl]-cyclohexyl}-5-fluoro-1H-indole]
		0.027	COc1ccccc1N1CCCN(C2CCC(c3c[nH]c4ccc(C#N)cc34)CC2)CC1 (stereo not shown) [Example 4]
	0.272	0.0049	COc1ccccc1N1CCCN(C2CCC(c3c[nH]c4cc(F)ccc34)CC2)CC1 (stereo not shown) [Example 5, 3-{4-[4-(2-Methoxy-phenyl)-[1,4]diazepan-1-yl]-cyclohexyl}-6-fluoro-1H-indole]
	0.602	0.009	Fc1ccc2[nH]cc(C3CCC(N4CCCN(c5cccc6cccnc56)CC4)CC3)c2c1 (stereo not shown) [Example 6, 8-{4-[4-(5-Fluoro-1H-indol-3-yl)-cyclohexyl]-[1,4]diazepan-1-yl}-quinoline]
	0.317	0.0027	Fc1ccc2c(C3CCC(N4CCCN(c5cccc6cccnc56)CC4)CC3)c[nH]c2c1 (stereo not shown) [Example 8, 8-{4-[4-(6-Fluoro-1H-indol-3-yl)-cyclohexyl]-[1,4]diazepan-1-yl}-quinoline]
	1.28	0.027	Fc1ccc2c(C3CCC(N4CCCN(c5cccc(C(F)(F)F)c5)CC4)CC3)c[nH]c2c1 (stereo not shown) [Example 11, 3-{4-[4-(3-Trifluoromethyl-phenyl)-[1,4]diazepan-1-yl]-cyclohexyl}-6-fluoro-1H-indole]

Further lines, the compound ahead of its results:

SMILES	melting point [°C]	IC50 (Human 5-HT Transporter) [µM]	Ki (5-HT transporter) [µM]
c1cnc2c(N3CCCN(C4CCC(c5c[nH]c6ccccc56)CC4)CC3)cccc2c1 (stereo not shown) (as salt: hydrochloride) [Example 2, 8-{4-[4-(1H-Indol-3-yl)-cyclohexyl]-[1,4]diazepan-1-yl}-quinoline]	152 to 165		
c1cnc2c(N3CCCN(C4CCC(c5c[nH]c6ccccc56)CC4)CC3)cccc2c1 (stereo not shown) [Example 2, 8-{4-[4-(1H-Indol-3-yl)-cyclohexyl]-[1,4]diazepan-1-yl}-quinoline]		0.399	0.009
N#Cc1ccc2[nH]cc(C3CCC(N4CCCN(c5cccc6cccnc56)CC4)CC3)c2c1 (stereo not shown) [Example 7, 8-{4-[4-(5-Cyano-1H-indol-3-yl)-cyclohexyl]-[1,4]diazepan-1-yl}-quinoline]			0.011
Fc1ccc2[nH]cc(C3CCC(N4CCCN(c5cccc(C(F)(F)F)c5)CC4)CC3)c2c1 (stereo not shown) [Example 9, 3-{4-[4-(3-Trifluoromethyl-phenyl)-[1,4]diazepan-1-yl]-cyclohexyl}-5-fluoro-1H-indole]		4.47	0.086
N#Cc1ccc2[nH]cc(C3CCC(N4CCCN(c5cccc(C(F)(F)F)c5)CC4)CC3)c2c1 (stereo not shown) [Example 10]		3.76	0.207
